Reference: US7893284B2 (Sterix Limited, priority 2004, dated 2011)
Like-named read-outs stand apart in the source and are kept apart here.

Test system: MCF-7 cells
Test: Cell proliferation, microtiter plate assay (Cell Titer 96), MCF-7
Format: cell-based
Description: The effect of drugs on the proliferation of cells was measured using a microtiter plate assay (Cell Titer 96 proliferation assay, Promega, Hampshire, UK).

[1] = Homo sapiens, MCF7, read-out: IC50 in μM for the growth inhibition of MCF-7 cells
[2] = read-out: IC50 in μM for the growth inhibition of MCF-7 cells

SMILES	IC50 [1] [µM]	IC50 [2] [µM]
CCOC(=O)/C=C1/CCC2C3CCc4cc(O)c(CC)cc4C3CC[C@]12C (stereo partly shown) [Compound 14a, Z- and E-(2-Ethyl-3-hydroxy-13-methyl-6,7,8,9,11,12,13,14,15,16-decahydro-cyclopenta[a]phenanthren-17-ylidene)acetic acid ethyl ester]	30.6	
COc1cc2c(cc1O)CCC1C2CCC2(C)C(=CC#N)CCC12 (stereo not shown) [Compound 30, Z- and E-(3-Hydroxy-2-methoxy-13-methyl-6,7,8,9,11,12,13,14,15,16-decahydro-cyclopenta[a]phenanthren-17-ylidene)-acetonitrile]		3.22
CCOC(=O)C[C@H]1CCC2C3CCc4cc(OS(N)(=O)=O)c(CC)cc4C3CC[C@@]21C (stereo in doubt) [Compound 23, (2-Ethyl-13-methyl-3-sulfamoyloxy-7,8,9,11,12,13,14,15,16,17-decahydro-6H-cyclopenta[a]phenanthren-17-yl)-acetic acid ethyl ester]	4.19	
CCc1cc2c(cc1O)CCC1C2CC[C@@]2(C)C1CC[C@@H]2CCO (stereo partly shown) [Compound 19, 2-Ethyl-17-(2-hydroxy-ethyl)-13-methyl-7,8,9,11,12,13,14,15,16,17-decahydro-6H-cyclopenta[a]phenanthren-3-ol]	2.52	
CCc1cc2c(cc1O)CC[C@@H]1[C@@H]2CC[C@]2(C)[C@@H](OS(C)(=O)=O)CC[C@@H]12 [Compound 59, 2-Ethyl-17-O-mesyl estradiol]		5.58
CCc1cc2c(cc1OS(N)(=O)=O)CCC1C2CC[C@@]2(C)C1CC[C@@H]2CCOS(N)(=O)=O (stereo partly shown) [Compound 20, Sulfamic acid 2-ethyl-13-methyl-17-(2-sulfamoyloxy-ethyl)-7,8,9,11,12,13,14,15,16,17-decahydro-6H-cyclopenta[a]phenanthren-3-yl ester]	5.64	
CCc1cc2c(cc1O)CCC1C2CC[C@]2(C)/C(=C\CO)CCC12 (stereo partly shown) [Compound 17a, Z- and E-2-Ethyl-17-(2-hydroxy-ethylidene)-13-methyl-7,8,9,11,12,13,14,15,16,17-decahydro-6H-cyclopenta[a]phenanthren-3-ol]	0.67	
COc1cc2c(cc1O)CCC1C2CC[C@@]2(C)C1CC[C@@H]2NCCN(C)C (stereo partly shown) [Compound 36, 17-(2-Dimethylamino-ethylamino)-2-methoxy-13-methyl-7,8,9,11,12,13,14,15,16,17-decahydro-6H-cyclopenta[a]phenanthren-3-ol]	3.25	
CCOC(=O)C[C@H]1CCC2C3CCc4cc(O)c(CC)cc4C3CC[C@@]21C (stereo in doubt) [Compound 22, (2-Ethyl-3-hydroxy-13-methyl-7,8,9,11,12,13,14,15,16,17-decahydro-6H-cyclopenta[a]phenanthren-17-yl)-acetic acid ethyl ester]	26.4	
COCCOC1CCC2C3CCc4cc(O)c(OC)cc4C3CCC12C (stereo not shown) [Compound 51, 2-Methoxy-17-(2-methoxy-ethoxy)-13-methyl-7,8,9,11,12,13,14,15,16,17-decahydro-6H-cyclopenta[a]phenanthren-3-ol]	6.02	
CCc1cc2c(cc1O)CCC1C2CC[C@]2(C)/C(=C/CO)CCC12 (stereo partly shown) [Compound 17b, Z- and E-2-Ethyl-17-(2-hydroxy-ethylidene)-13-methyl-7,8,9,11,12,13,14,15,16,17-decahydro-6H-cyclopenta[a]phenanthren-3-ol]	0.77	
CCOC(=O)/C=C1\CCC2C3CCc4cc(O)c(CC)cc4C3CC[C@]12C (stereo partly shown) [Compound 14b, Z- and E-(2-Ethyl-3-hydroxy-13-methyl-6,7,8,9,11,12,13,14,15,16-decahydro-cyclopenta[a]phenanthren-17-ylidene)acetic acid ethyl ester]	31.1	
CCOC(=O)/C=C1\CCC2C3CCc4cc(OS(N)(=O)=O)c(CC)cc4C3CC[C@]12C (stereo in doubt) [Compound 15, (2-Ethyl-13-methyl-3-sulfamoyloxy-6,7,8,9,11,12,13,14,15,16-decahydro-cyclopenta[a]phenanthren-17-ylidene)-acetic acid ethyl ester]	1.85	
